Results: US12173018B2, “Penicillin-binding protein inhibitors” (priority 2018, dated 2024)
Values after ≈ are worked out from the molar mass of the structure shown. Read-outs that look alike come from different tables or passages of the source.

Legend:
[1] = system: engineered strain of Escherichia coli harboring CTX-M15; assay: microbe, parasite or virus in culture; format: cell-based; conditions: Escherichia coli, read-out: Microbiological Activity (MIC in mg/L), E. coli DH5α/pLBII-CTX-M15, engineered strain producing CTX-M15
[2] = biological target: E. coli PBP2 (Escherichia coli (strain K12), UniProt P0AD65); assay: E. coli PBP2 Bocillin-FL fluorescence polarization competition binding assay; conditions: fluorescence polarization competition binding with Bocillin-FL; read-out: E. coli K12 PBP2 Potency (EC50)
Summary of the method: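 Fluorescence polarization competition with Bocillin-FL (0.1 μM final) and purified PBP2 (1.5 μM final) in 50 mM Hepes pH 8.0, 300 mM NaCl, 5% glycerol. FP (ex 490/em 520 nm) read for 90 min after Bocillin-FL addition; EC50 is the inhibitor concentration reducing Bocillin-FL binding by half.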

[3] = biological target: E. coli PBP4 (Escherichia coli (strain K12), UniProt P24228); assay: E. coli PBP4 Bocillin-FL fluorescence polarization competition binding assay
From the text: To determine the ability of boronic acid-based test PBP inhibitors to bind Penicillin Binding Proteins (PBPs), Bocillin-FL (fluorescently-labeled penicillin V; ThermoFisher Scientific) was used in a fluorescence polarization (FP) competition binding assay to assess inhibitor binding to PBP2, PBP3 or PBP4 from Escherichia coli. PBPs were cloned and purified as described previously (King, D. T, et al., ACS Infectious Diseases 2015, 1, 175-184). To establish assay conditions for competition binding, an enzyme titration/saturation binding experiment was initially performed. Bocillin-FL was prepared at 0.2 μM in a buffer comprised of 50 mM Hepes (pH 8.0), 300 mM NaCl and 5% (v/v) glycerol. Saturation binding was performed by mixing 40 μl of PBP solutions ranging in concentrations from 0-12 μM with 40 μl of the 0.2 μM Bocillin-FL solution, in individual wells of a black 384-well microplate. FP was measured immediately upon mixing (Excitation, 490 nm; Emission, 520 nm; g-factor, 0.96), using a Cytation3 (BioTek) microplate reader and measured continuously for up to 120 minutes. […] Assays (80 μl final volume) were performed with PBPs at a final concentration of 1.5 μM, Bocillin-FL at 0.1 μM and beta-lactam concentrations that ranged from 0-1000 μM. […] Bocillin-FL was added and the FP immediately measured for 60 minutes (90 minutes for PBP2). The beta-lactam potency was reported as the concentration of beta-lactam required to reduce binding of Bocillin-FL by […] (EC50). […] Binding assays for boronic acid PBP inhibitors were performed in an identical fashion.

[4] = fluorescence polarization competition binding with Bocillin-FL, read-out: E. coli K12 PBP4 Potency (EC50)

Chain of E. coli PBP2 (P0AD65 whole entry): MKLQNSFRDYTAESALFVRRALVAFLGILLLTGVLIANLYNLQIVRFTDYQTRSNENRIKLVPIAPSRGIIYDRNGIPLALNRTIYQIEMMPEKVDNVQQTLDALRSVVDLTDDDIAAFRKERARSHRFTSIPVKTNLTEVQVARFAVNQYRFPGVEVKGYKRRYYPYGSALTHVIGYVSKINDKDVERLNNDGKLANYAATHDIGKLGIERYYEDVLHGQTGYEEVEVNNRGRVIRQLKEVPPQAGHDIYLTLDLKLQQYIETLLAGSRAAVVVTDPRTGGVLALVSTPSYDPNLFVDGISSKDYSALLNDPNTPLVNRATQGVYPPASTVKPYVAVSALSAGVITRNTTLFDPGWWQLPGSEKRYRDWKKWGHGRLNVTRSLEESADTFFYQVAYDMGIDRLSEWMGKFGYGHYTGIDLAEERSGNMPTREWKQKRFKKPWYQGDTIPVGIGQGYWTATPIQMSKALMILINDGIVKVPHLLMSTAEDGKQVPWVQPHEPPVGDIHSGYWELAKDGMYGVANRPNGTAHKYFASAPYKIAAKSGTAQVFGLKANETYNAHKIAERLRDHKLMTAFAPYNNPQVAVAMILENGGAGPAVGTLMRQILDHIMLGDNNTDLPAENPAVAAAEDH
Chain of E. coli PBP4 (P24228 21-477): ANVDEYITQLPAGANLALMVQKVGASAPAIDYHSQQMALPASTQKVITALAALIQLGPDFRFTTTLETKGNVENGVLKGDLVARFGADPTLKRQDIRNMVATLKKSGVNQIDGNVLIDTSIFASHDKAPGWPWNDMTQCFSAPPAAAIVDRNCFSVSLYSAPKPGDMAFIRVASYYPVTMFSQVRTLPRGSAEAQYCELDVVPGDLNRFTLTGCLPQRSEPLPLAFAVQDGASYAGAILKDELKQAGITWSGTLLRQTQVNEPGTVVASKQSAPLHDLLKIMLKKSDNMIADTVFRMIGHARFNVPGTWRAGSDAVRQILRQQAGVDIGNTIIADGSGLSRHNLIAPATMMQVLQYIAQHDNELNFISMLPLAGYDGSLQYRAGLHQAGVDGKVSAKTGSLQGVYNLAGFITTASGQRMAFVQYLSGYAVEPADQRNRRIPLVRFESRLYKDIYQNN

| Compound | MIC [1] [mg/L] | EC50 [2] [µM] | EC50 [3, 4] [µM] | EC50 [3] [µM] |
| --- | --- | --- | --- | --- |
| CCN1CCN(C(=O)NC(C(=O)N[C@H]2Cc3cc(F)cc(C(=O)O)c3OB2O)c2csc(N)n2)C(=O)C1=O (stereo partly drawn) [Example 16, (3R)-3-(2-(2-aminothiazol-4-yl)-2-(4-ethyl-2,3-dioxopiperazine-1-carboxamido)acetamido)-6-fluoro-2-hydroxy-3,4-dihydro-2H-benzo[e][1,2]oxaborinine-8-carboxylic acid] | 32 to 64 (≈ 58.4 to 117 µM) | > 500 | > 500 | – |
| CCN1CCN(C(=O)NC(C(=O)N[C@H]2Cc3cccc(C(=O)O)c3OB2O)c2ccc(O)cc2)C(=O)C1=O (stereo partly drawn) [Example 27, (3R)-3-(2-(4-ethyl-2,3-dioxopiperazine-1-carboxamido)-2-(4-hydroxyphenyl)acetamido)-2-hydroxy-3,4-dihydro-2H-benzo[e][1,2]oxaborinine-8-carboxylic acid] | 8 to 16 (≈ 15.3 to 30.5 µM) | > 500 | > 500 | – |
| CCN1CCN(C(=O)NC(C(=O)N[C@H]2Cc3cccc(C(=O)O)c3OB2O)c2ccc(O)cc2F)C(=O)C1=O (stereo partly drawn) [Example 87, (3R)-3-(2-(4-ethyl-2,3-dioxopiperazine-1-carboxamido)-2-(2-fluoro-4-hydroxyphenyl)acetamido)-2-hydroxy-3,4-dihydro-2H-benzo[e][1,2]oxaborinine-8-carboxylic acid] | 32 to 64 (≈ 59 to 118 µM) | > 500 | > 500 | – |
| CCN1CCN(C(=O)NC(C(=O)N[C@H]2Cc3cccc(C(=O)O)c3OB2O)c2cc(O)c(O)cc2F)C(=O)C1=O (stereo partly drawn) [Example 90, (3R)-3-(2-(4-ethyl-2,3-dioxopiperazine-1-carboxamido)-2-(2-fluoro-4,5-dihydroxyphenyl)acetamido)-2-hydroxy-3,4-dihydro-2H-benzo[e][1,2]oxaborinine-8-carboxylic acid] | 8 to 16 (≈ 14.3 to 28.7 µM) | > 500 | > 500 | – |
| CCN1CCN(C(=O)N[C@@H](C(=O)N[C@H]2Cc3ccc(F)c(C(=O)O)c3OB2O)[C@@H](C)O)C(=O)C1=O [Example 110, (R)-3-((2R,3R)-2-(4-ethyl-2,3-dioxopiperazine-1-carboxamido)-3-hydroxybutanamido)-7-fluoro-2-hydroxy-3,4-dihydro-2H-benzo[e][1,2]oxaborinine-8-carboxylic acid] | 8 to 16 (≈ 16.2 to 32.4 µM) | > 500 | > 500 | – |
| CCN1CCN(C(=O)NC(C(=O)N[C@H]2Cc3cccc(C(=O)O)c3OB2O)c2cccc(O)n2)C(=O)C1=O (stereo partly drawn) [Example 117, (3R)-3-(2-(4-ethyl-2,3-dioxopiperazine-1-carboxamido)-2-(6-hydroxypyridin-2-yl)acetamido)-2-hydroxy-3,4-dihydro-2H-benzo[e][1,2]oxaborinine-8-carboxylic acid] | 32 to 64 (≈ 60.9 to 122 µM) | > 500 | > 500 | – |
| CCN1CCN(C(=O)NC(C(=O)N[C@H]2Cc3cccc(C(=O)O)c3OB2O)c2cnc(O)cn2)C(=O)C1=O (stereo partly drawn) [Example 121, (3R)-3-(2-(4-ethyl-2,3-dioxopiperazine-1-carboxamido)-2-(5-hydroxypyrazin-2-yl)acetamido)-2-hydroxy-3,4-dihydro-2H-benzo[e][1,2]oxaborinine-8-carboxylic acid] | – | > 500 | > 500 | – |
| O=C(O)c1c(F)ccc2c1OB(O)[C@@H](NC(=O)C(NC(=O)N1CCN(CCF)C(=O)C1=O)c1ccc(O)c(O)c1Cl)C2 (stereo partly shown) [Example 131] | – | > 500 | – | 30 to 500 |
